What was measured:
[1] = system: A549-ACE2 infected with SARS-CoV-2; assay: cell count relative to DMSO; higher = less toxic; conditions: 24 h
Caco-2 [2] = assay: cell viability relative to DMSO; higher = less toxic; conditions: 72 h
Calu-3 [3] = assay: as above; conditions: 72 h
HepG2 [4] = assay: as above; conditions: 72 h
U2OS [5] = assay: as above; conditions: 72 h
Vero E6 [6] = assay: as above; conditions: 72 h
[7] = system: A549-ACE2 infected with SARS-CoV-2; assay: SARS-CoV-2 infection rate relative to DMSO; higher = more infection; conditions: 24 h
A549-ACE2 [8] = assay: phospholipidosis EC50; higher = less potent phospholipidosis inducer
A549-ACE2 [9] = assay: drug-induced phospholipidosis relative to tamoxifen; higher = more phospholipidosis
[10] = system: A549-ACE2 infected with SARS-CoV-2; assay: morphology score (similarity to uninfected cells); higher = more like uninfected cells; conditions: 24 h
Calu-3 [11] = assay: relative viability EC50 (midpoint between 100% and the lowest measured viability); higher = less toxic; conditions: 72 h
HepG2 [12] = assay: as above; conditions: 72 h
Caco-2 [13] = assay: drug sensitivity score (DSS) for viability; higher = more toxic; extreme values may be limits of the assay; conditions: 72 h
Calu-3 [14] = assay: as above; conditions: 72 h
HepG2 [15] = assay: as above; conditions: 72 h
U2OS [16] = assay: as above; conditions: 72 h
Vero E6 [17] = assay: as above; conditions: 72 h
Caco-2 [18] = assay: relative viability EC50 (midpoint between 100% and the lowest measured viability); higher = less toxic; conditions: 72 h
U2OS [19] = assay: as above; conditions: 72 h
Vero E6 [20] = assay: as above; conditions: 72 h

C1CCC(C(CC2CCCCN2)C2CCCCC2)CC1 (stereo not drawn) [perhexiline]
Conditions	SARS-CoV-2 infection rate [%]	cell count [%]	cell viability [%]	morphology score	phospholipidosis EC50 [µM]
A549-ACE2 [8], 24 h	–	–	–	–	0.945
A549-ACE2 [8], 48 h	–	–	–	–	2.48
A549-ACE2 [8], 72 h	–	–	–	–	4.51
Caco-2 [2], 1 nM	–	–	92.7	–	–
Caco-2 [2], 10 nM	–	–	101	–	–
Caco-2 [2], 100 nM	–	–	93.9	–	–
Caco-2 [2], 1000 nM	–	–	90.9	–	–
Caco-2 [2], 10000 nM	–	–	63.5	–	–
Calu-3 [3], 1 nM	–	–	108	–	–
Calu-3 [3], 10 nM	–	–	101	–	–
Calu-3 [3], 100 nM	–	–	92.6	–	–
Calu-3 [3], 1000 nM	–	–	101	–	–
Calu-3 [3], 10000 nM	–	–	1.9	–	–
HepG2 [4], 1 nM	–	–	98.9	–	–
HepG2 [4], 10 nM	–	–	99.5	–	–
HepG2 [4], 100 nM	–	–	103	–	–
HepG2 [4], 1000 nM	–	–	95.1	–	–
HepG2 [4], 10000 nM	–	–	38.6	–	–
U2OS [5], 1 nM	–	–	101	–	–
U2OS [5], 10 nM	–	–	103	–	–
U2OS [5], 100 nM	–	–	103	–	–
U2OS [5], 1000 nM	–	–	98.6	–	–
U2OS [5], 10000 nM	–	–	62	–	–
Vero E6 [6], 1 nM	–	–	106	–	–
Vero E6 [6], 10 nM	–	–	103	–	–
Vero E6 [6], 100 nM	–	–	99.5	–	–
Vero E6 [6], 1000 nM	–	–	95.3	–	–
Vero E6 [6], 10000 nM	–	–	71.1	–	–
[1], 0.1 µM	–	99	–	–	–
[1], 0.3 µM	–	96	–	–	–
[1], 1 µM	–	105	–	–	–
[1], 3 µM	–	123	–	–	–
[7], 0.1 µM	100	–	–	–	–
[7], 0.3 µM	104	–	–	–	–
[7], 1 µM	79	–	–	–	–
[7], 3 µM	36	–	–	–	–
[10], 0.1 µM	–	–	–	-0.02	–
[10], 0.3 µM	–	–	–	-0.25	–
[10], 1 µM	–	–	–	0.35	–
[10], 3 µM	–	–	–	0.91	–

drug-induced phospholipidosis [%], A549-ACE2 [9]
Conditions	0.3 µM	0.833333 µM	3.33333 µM	6.66667 µM	10 µM	30 µM
24 h	3.79	25.8	87.2	113	106	26.8
48 h	4.34	16.1	84.3	113	121	–
72 h	5.16	14.3	68.3	99.9	120	–

Conditions	drug sensitivity score	relative viability EC50 [µM]
Caco-2 [13]	2.9	–
Calu-3 [11]	–	3.24
Calu-3 [14]	5.4	–
HepG2 [12]	–	2.51
HepG2 [15]	4.1	–
U2OS [16]	2	–
Vero E6 [17]	2	–

CN1CCN(CCCN2c3ccccc3Sc3ccc(Cl)cc32)CC1 [prochlorperazine]
Conditions	SARS-CoV-2 infection rate [%]	cell count [%]	cell viability [%]	morphology score	phospholipidosis EC50 [µM]
A549-ACE2 [8], 24 h	–	–	–	–	3.19
A549-ACE2 [8], 48 h	–	–	–	–	4.05
A549-ACE2 [8], 72 h	–	–	–	–	12.5
Caco-2 [2], 1 nM	–	–	100	–	–
Caco-2 [2], 10 nM	–	–	84.1	–	–
Caco-2 [2], 100 nM	–	–	96.9	–	–
Caco-2 [2], 1000 nM	–	–	99.8	–	–
Caco-2 [2], 10000 nM	–	–	76.6	–	–
Calu-3 [3], 1 nM	–	–	106	–	–
Calu-3 [3], 10 nM	–	–	103	–	–
Calu-3 [3], 100 nM	–	–	105	–	–
Calu-3 [3], 1000 nM	–	–	105	–	–
Calu-3 [3], 10000 nM	–	–	93.2	–	–
HepG2 [4], 1 nM	–	–	107	–	–
HepG2 [4], 10 nM	–	–	102	–	–
HepG2 [4], 100 nM	–	–	97	–	–
HepG2 [4], 1000 nM	–	–	106	–	–
HepG2 [4], 10000 nM	–	–	55.5	–	–
U2OS [5], 1 nM	–	–	103	–	–
U2OS [5], 10 nM	–	–	94.5	–	–
U2OS [5], 100 nM	–	–	98.6	–	–
U2OS [5], 1000 nM	–	–	94	–	–
U2OS [5], 10000 nM	–	–	91.4	–	–
Vero E6 [6], 1 nM	–	–	96	–	–
Vero E6 [6], 10 nM	–	–	92.5	–	–
Vero E6 [6], 100 nM	–	–	101	–	–
Vero E6 [6], 1000 nM	–	–	97.4	–	–
Vero E6 [6], 10000 nM	–	–	81	–	–
[1], 0.3 µM	–	100	–	–	–
[1], 3 µM	–	123	–	–	–
[1], 10 µM	–	117	–	–	–
[1], 30 µM	–	64	–	–	–
[7], 0.3 µM	95	–	–	–	–
[7], 3 µM	29	–	–	–	–
[7], 10 µM	12	–	–	–	–
[7], 30 µM	50	–	–	–	–
[10], 0.3 µM	–	–	–	0	–
[10], 3 µM	–	–	–	0.84	–
[10], 10 µM	–	–	–	0.79	–
[10], 30 µM	–	–	–	0.19	–

drug-induced phospholipidosis [%], A549-ACE2 [9]
Conditions	0.3 µM	0.833333 µM	3.33333 µM	6.66667 µM	10 µM	30 µM
24 h	1.08	10.5	48.6	76.3	92.2	56.6
48 h	0.82	7.81	45.8	83.3	94.4	–
72 h	3.57	9.54	35	75	104	–

Conditions	drug sensitivity score	relative viability EC50 [µM]
Caco-2 [13]	0.9	–
Caco-2 [18]	–	> 10
Calu-3 [11]	–	> 10
Calu-3 [14]	0	–
HepG2 [15]	1.9	–
U2OS [16]	0	–
U2OS [19]	–	> 10
Vero E6 [17]	0.9	–
Vero E6 [20]	–	> 10

COc1ccc2cc1Oc1ccc(cc1)C[C@H]1c3cc(c(OC)cc3CCN1C)Oc1c(OC)c(OC)cc3c1[C@H](C2)N(C)CC3 [tetrandrine]
Conditions	SARS-CoV-2 infection rate [%]	cell count [%]	cell viability [%]	morphology score	phospholipidosis EC50 [µM]
A549-ACE2 [8], 24 h	–	–	–	–	7
A549-ACE2 [8], 48 h	–	–	–	–	10.2
A549-ACE2 [8], 72 h	–	–	–	–	5.6
Caco-2 [2], 1 nM	–	–	100	–	–
Caco-2 [2], 10 nM	–	–	97.9	–	–
Caco-2 [2], 100 nM	–	–	92.1	–	–
Caco-2 [2], 1000 nM	–	–	95.4	–	–
Caco-2 [2], 10000 nM	–	–	79.5	–	–
Calu-3 [3], 1 nM	–	–	88.3	–	–
Calu-3 [3], 10 nM	–	–	109	–	–
Calu-3 [3], 100 nM	–	–	91.3	–	–
Calu-3 [3], 1000 nM	–	–	99.9	–	–
Calu-3 [3], 10000 nM	–	–	29.1	–	–
HepG2 [4], 1 nM	–	–	104	–	–
HepG2 [4], 10 nM	–	–	102	–	–
HepG2 [4], 100 nM	–	–	97.7	–	–
HepG2 [4], 1000 nM	–	–	94.1	–	–
HepG2 [4], 10000 nM	–	–	71.5	–	–
Vero E6 [6], 1 nM	–	–	100	–	–
Vero E6 [6], 10 nM	–	–	94.2	–	–
Vero E6 [6], 100 nM	–	–	94.6	–	–
Vero E6 [6], 1000 nM	–	–	94.4	–	–
Vero E6 [6], 10000 nM	–	–	92.6	–	–
[1], 0.3 µM	–	106	–	–	–
[1], 3 µM	–	115	–	–	–
[1], 10 µM	–	119	–	–	–
[1], 30 µM	–	79	–	–	–
[7], 0.3 µM	92	–	–	–	–
[7], 3 µM	23	–	–	–	–
[7], 10 µM	21	–	–	–	–
[7], 30 µM	42	–	–	–	–
[10], 0.3 µM	–	–	–	0.37	–
[10], 3 µM	–	–	–	0.79	–
[10], 10 µM	–	–	–	0.07	–
[10], 30 µM	–	–	–	-0.15	–

drug-induced phospholipidosis [%], A549-ACE2 [9]
Conditions	0.3 µM	0.833333 µM	3.33333 µM	6.66667 µM	10 µM	30 µM
24 h	16.2	29.5	61.4	78	92.7	115
48 h	16.2	22.2	51.1	78.8	101	145
72 h	8.49	16.5	49.2	80.6	103	176

Conditions	drug sensitivity score	relative viability EC50 [µM]
Caco-2 [13]	0.7	–
Caco-2 [18]	–	> 10
Calu-3 [11]	–	3.15
Calu-3 [14]	3.9	–
HepG2 [15]	2.1	–
Vero E6 [17]	0	–
Vero E6 [20]	–	> 10

Source: the supplement of paper PMC13380429
